Measured values: patent US10391080B2, “Ketorolac for the treatment of cancer” (Cipla Limited, priority 2016, dated 2019)
Where two headings read alike, the source gives them in different places.

Legend:
Type in all cases: cell-based
786-O = assay: In vitro 3D assay, clonogenic assay (colony formation in semi-solid medium); conditions: Homo sapiens, 786-0, 3D colony formation, continuous exposure 8 to 13 days
Experimental: (§1) Ketorolac was characterized for its ability to inhibit anchorage independent growth and ex vivo colony formation of tumor cells in semi-solid medium. The compound was tested against 10 human tumor xenograft-derived cell suspensions or tumor cell lines of renal cancer.
(§2) Cell lines were routinely passaged one or twice weekly. […] The percentage of viable cells was determined in a Neubauer-hemocytometer using trypan blue exclusion.
(§3) Tumor xenografts (patient-derived, as well as cell line-derived xenografts) were passaged as subcutaneous xenografts in NMRI nu/nu mice. At a tumor volume of 400-1000 mm^3 tumor-bearing mice were sacrificed and tumors were collected under sterile conditions without delay according to the relevant Oncotest SOPs and the relevant animal welfare guidelines published by the FELASA and the GV-SOLAS. […] The percentage of viable cells was determined in a Neubauer-hemocytometer using trypan blue exclusion. Aliquots of the cells were frozen down, and stored in liquid nitrogen. On each day of an experiment, a frozen aliquot of tumor cells was thawed and used for preparation of assay plates.
(§4) The clonogenic assay was carried out in a 96 well plate format using ultra low attachment plates. […] Every plate included six untreated control wells and drug-treated groups in duplicate at 9 concentrations. […] At the time of maximum colony formation, counts were performed with an automatic image analysis system (Celllnsight NXT, Thermo Scientific). 48 hours prior to evaluation, vital colonies were stained with a sterile aqueous solution of 2-(4-iodophenyl)-3-(4-nitrophenyl)-5-phenyltetrazolium chloride (1 mg/ml, 100 μl/well).

SN12C = assay: as above; conditions: Homo sapiens, 3D colony formation, continuous exposure 8 to 13 days
Experimental: as §1, §2, §3, §4

RXF 393L = assay: as above; conditions: Homo sapiens, 3D colony formation, continuous exposure 8 to 13 days
Experimental: as §1, §2, §3, §4

A-498 cells = assay: as above; conditions: Homo sapiens, A498, A-498, 3D colony formation, continuous exposure 8 to 13 days
Experimental: as §1, §2, §3, §4

ACHN = assay: as above; conditions: Homo sapiens, 3D colony formation, continuous exposure 8 to 13 days
Experimental: as §1, §2, §3, §4

RXF 486L = assay: as above; conditions: Homo sapiens, 3D colony formation, continuous exposure 8 to 13 days
Experimental: as §1, §2, §3, §4

RXF 1220L [1] = assay: as above; conditions: Homo sapiens, 3D colony formation, continuous exposure 8 to 13 days
Experimental: as §1, §2, §3, §4

RXF 1781L [2] = assay: as above; conditions: Homo sapiens, 3D colony formation, continuous exposure 8 to 13 days
Experimental: as §1, §2, §3, §4

RXF 1183L = assay: as above; conditions: Homo sapiens, 3D colony formation, continuous exposure 8 to 13 days
Experimental: as §1, §2, §3, §4

Caki-1 = assay: as above; conditions: Homo sapiens, Caki-1, 3D colony formation, continuous exposure 8 to 13 days
Experimental: as §1, §2, §3, §4

RXF SN12C = assay: In vitro 2D assay, CellTiter-Blue Cell Viability Assay; conditions: Homo sapiens, 96 h treatment
Experimental: (§5) The objective of this study was to investigate the in-vitro anticancer activity of ketorolac. Antitumor activity was assessed in ten selected renal cancer cell lines by using the CellTiter-Blue Cell Viability Assay. The human renal cancer cell lines RXF 1183L, RXF 1220L, RXF 1781L, RXF 393L, RXF 486L, RXF 786-0, RXF A-498, RXF ACHN, RXF Caki-1 and RXF SN12C were used. RXF 1183L, RXF 1220L, RXF 1781L, RXF 393L and RXF 486L were established at Oncotest from the corresponding human patient-derived xenograft. The cell lines 786-0, A-498, Caki-1 and SN12C were purchased from NCI (National Cancer Institute, Bethesda, Md., USA). ACHN was purchased from ECACC (European Collection of Cell Cultures, Salisbury, UK). Authenticity of cell lines was confirmed at the DSMZ by STR (short tandem repeat) analysis, a PCR based DNA-fingerprinting methodology.
(§6) Cell lines were routinely passaged once or twice weekly and maintained in culture for up to 20 passages. All cells were grown at 37° C. in a humidified atmosphere with 5% CO2 in RPMI 1640 medium (25 mM HEPES, with L-glutamine, #FG1385, Biochrom, Berlin, Germany) supplemented with 10% (v/v) fetal calf serum (Sigma, Taufkirchen, Germany) and 0.1 mg/mL gentamicin (Life Technologies, Karlsruhe, Germany).
(§7) Ketorolac was dissolved at a concentration of 60 mM in cell culture media. Starting with this stock solution, dilutions were made using cell culture media resulting in final test concentrations of 12000, 7800, 6000, 4200, 3000, 1800, 600, 420, 180, 60 μM. Precipitation was not observed.
(§8) The CellTiter-Blue Cell Viability Assay was used according to manufacturer's instructions. Briefly, cells were harvested from exponential phase cultures, counted and plated in 96-well flat-bottom microtiter plates at a cell density of 4,000-12,000 cells/well depending on the cell line's growth rate. After a 24 h recovery period to allow the cells to resume exponential growth, ketorolac was applied at 8 to 10 concentrations in duplicate and treatment continued for 96 h. After 96 h treatment of cells, 20 μL/well CellTiter-Blue® reagent was added. Following an incubation period of up to four hours, fluorescence (FU) was measured by using the Enspire Multimode Plate Reader (excitation λ=531 nm, emission λ=615 nm).
(§9) For calculations, the mean values of duplicate/quadruplicate (untreated control) data were used. Sigmoidal concentration-response curves were fitted to the data points (T/C values) obtained for each cell line using 4 parameter non-linear curve fit.

RXF ACHN = assay: as above; conditions: Homo sapiens, 96 h treatment
Experimental: as §5, §6, §7, §8, §9

RXF Caki-1 = assay: as above; conditions: Homo sapiens, Caki-1, 2D, 96 h treatment
Experimental: as §5, §6, §7, §8, §9

RXF A-498 = assay: as above; conditions: Homo sapiens, A498, A-498, 2D, 96 h treatment
Experimental: as §5, §6, §7, §8, §9

RXF 1220L [3] = assay: as above; conditions: Homo sapiens, 96 h treatment
Experimental: as §5, §6, §7, §8, §9

RXF 1781L [4] = assay: as above; conditions: Homo sapiens, 96 h treatment
Experimental: as §5, §6, §7, §8, §9

O=C(c1ccccc1)c1ccc2n1CCC2C(=O)O (racemic) [Ketorolac, (±)-5-benzoyl-2,3-dihydro-1H-pyrrolizine-1-carboxylic acid]
IC50 (786-O; read-out: Absolute IC50): 3.84 mM | IC50 (786-O; read-out: Relative IC50): 4.2 mM | IC50 (SN12C; read-out: Absolute IC50): 2.59 mM | IC50 (SN12C; read-out: Relative IC50): 2.64 mM | IC50 (RXF 393L; read-out: Absolute IC50): 2.83 mM | IC50 (RXF 393L; read-out: Relative IC50): 2.73 mM | IC50 (A-498 cells; read-out: Absolute IC50): 0.279 mM | IC50 (A-498 cells; read-out: Relative IC50): 0.279 mM | IC50 (ACHN; read-out: Absolute IC50): 3.14 mM | IC50 (ACHN; read-out: Relative IC50): 3.25 mM | IC50 (RXF 486L; read-out: Absolute IC50): 2.68 mM | IC50 (RXF 486L; read-out: Relative IC50): 2.61 mM | IC50 (RXF 1220L [1]; read-out: Absolute IC50): 1.77 mM | IC50 (RXF 1220L [1]; read-out: Relative IC50): 1.75 mM | IC50 (RXF 1781L [2]; read-out: Absolute IC50): 1.9 mM | IC50 (RXF 1781L [2]; read-out: Relative IC50): 2.03 mM | IC50 (RXF 1183L; read-out: Absolute IC50): 1.55 mM | IC50 (RXF 1183L; read-out: Relative IC50): 1.49 mM | IC50 (Caki-1; read-out: Absolute IC50): 3.68 mM | IC50 (Caki-1; read-out: Relative IC50): 3.75 mM | IC50 (RXF SN12C; read-out: Absolute IC50): 2.44 mM | IC50 (RXF SN12C; read-out: Relative IC50): 2.82 mM | IC50 (RXF ACHN; read-out: Absolute IC50): 2.8 mM | IC50 (RXF ACHN; read-out: Relative IC50): 3.39 mM | IC50 (RXF Caki-1; read-out: Absolute IC50): 2.79 mM | IC50 (RXF Caki-1; read-out: Relative IC50): 3.44 mM | IC50 (RXF A-498; read-out: Absolute IC50): 4.75 mM | IC50 (RXF A-498; read-out: Relative IC50): 5.65 mM | IC50 (RXF 1220L [3]; read-out: Absolute IC50): 4.77 mM | IC50 (RXF 1220L [3]; read-out: Relative IC50): 5.36 mM | IC50 (RXF 1781L [4]; read-out: Absolute IC50): 3.82 mM | IC50 (RXF 1781L [4]; read-out: Relative IC50): 4.44 mM
